Source: patent US12162820B2 (TAIWANJ PHARMACEUTICALS CO., LTD., priority 2019, dated 2024)

How the values were obtained:
Assay type in all cases: biochemical
HDAC1 = biological target: T1, HDAC1 (Homo sapiens, UniProt Q13547); test: HDAC Inhibition Screening Assay (FLUOR DE LYS Fluorimetric Drug Discovery Kit), HDAC1; settings: for inhibition at 2 µM: 2 μM compound; for inhibition at 10 µM: 10 μM compound; for inhibition at 50 µM: 50 μM compound
T1 construct: purchased Enzo Life Sciences
Method: (§1) The HDAC1/HDAC2/HDAC3 in vitro activities are detected by Enzo Life Sciences' HDAC1/HDAC2/HDAC3 Fluorimetric Drug Discovery Kit. The assay is based on the FLUOR DE LYS® Substrate and FLUOR DE LYS® Developer combination. The assay procedure has two steps. First, the FLUOR DE LYS® Substrate, which comprises an acetylated lysine side chain, is incubated with HDAC1/HDAC2/HDAC3, respectively. Deacetylation of the substrate sensitizes the substrate so that, in the second step, treatment with the FLUOR DE LYS® Developer produces a fluorophore. The signals of the test compounds (Compounds 1˜83; at concentrations of 2 μM, 10 μM and 50 μM) in 96-well plates are detected at 360 nm or 485 nm excitation and 460 nm or 530 nm emission with a Molecular Devices SpectraMax i3 Imaging Cytometer. The HDAC1/HDAC2/HDAC3 activities are expressed in percentage of basal control minus baseline control.

HDAC3 = biological target: T2, HDAC3 (Homo sapiens, UniProt O15379); test: HDAC Inhibition Screening Assay (FLUOR DE LYS Fluorimetric Drug Discovery Kit), HDAC3; settings: for inhibition at 2 µM: 2 μM compound; for inhibition at 10 µM: 10 μM compound; for inhibition at 50 µM: 50 μM compound
T2 construct: purchased Enzo Life Sciences
Method: as §1

HDAC2 = biological target: T3, HDAC2 (Homo sapiens, UniProt Q92769); test: HDAC Inhibition Screening Assay (FLUOR DE LYS Fluorimetric Drug Discovery Kit), HDAC2; settings: for inhibition at 2 µM: 2 μM compound; for inhibition at 10 µM: 10 μM compound; for inhibition at 50 µM: 50 μM compound
T3 construct: purchased Enzo Life Sciences
Method: as §1

ATX (autotaxin) = biological target: T4, ATX (autotaxin) (Homo sapiens, UniProt Q13822); test: Autotaxin Inhibition Screening Assay (choline release from LPC, LPC-CR); settings: for inhibition at 4 µM: 4 μM compound; for inhibition at 20 µM: 20 μM compound; for inhibition at 50 µM: 50 μM compound
T4 construct: purchased Cayman 10803
Method: ATX (autotaxin) activity was measured by choline release from LPC in presence or absence of test compounds (Compounds 1˜83; at concentrations of 4 μM, 20 μM and 50 μM). Twenty (20) ng ATX (10803, Cayman, MI, USA) was incubated with 100 μM 14:0 LPC (855575P, Avanti, AL, USA) in a final volume of 100 μL buffer containing 50 mM Tris pH 8.0, 0.01% Triton X-100, 50 mM CaCl2, 1 unit/ml choline oxidase, 2 unit/ml horseradish peroxidase (HRP), 2 mM homovanilic acid (HVA). The relative amount of released choline was measured by HVA fluorescence in a 96-well plate. Fluorescent intensity was determined at λex/λem=320/450 nm every 60 sec for 90 min with a SpectraMax i3 (Molecular Devices, CA, USA). Data analysis was performed using GraphPad Prism (GraphPad, La Jolla CA, USA). Inhibition %=[1−(SlopeTA−SlopeBlank)/(SlopeVehicle−SlopeBlank)]×100% HDAC Inhibition Screening Assay

T2 sequence (O15379 whole entry): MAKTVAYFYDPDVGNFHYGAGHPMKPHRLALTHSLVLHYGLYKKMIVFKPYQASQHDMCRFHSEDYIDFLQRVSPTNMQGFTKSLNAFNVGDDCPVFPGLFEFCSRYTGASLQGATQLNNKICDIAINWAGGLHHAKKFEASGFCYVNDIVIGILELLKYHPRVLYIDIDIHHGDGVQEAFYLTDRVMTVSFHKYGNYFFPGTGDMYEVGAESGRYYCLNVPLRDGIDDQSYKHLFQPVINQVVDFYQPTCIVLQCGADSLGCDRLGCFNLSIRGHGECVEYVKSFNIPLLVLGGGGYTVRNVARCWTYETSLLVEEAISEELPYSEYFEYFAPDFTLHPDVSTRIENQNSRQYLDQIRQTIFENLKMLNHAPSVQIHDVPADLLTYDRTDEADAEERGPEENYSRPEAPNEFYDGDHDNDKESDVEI
T2 sequence (O75376 395-489 partner limits assumed): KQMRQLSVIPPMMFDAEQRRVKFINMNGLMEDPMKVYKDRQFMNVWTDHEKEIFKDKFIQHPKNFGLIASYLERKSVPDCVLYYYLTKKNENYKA
T3 sequence (Q92769 whole entry): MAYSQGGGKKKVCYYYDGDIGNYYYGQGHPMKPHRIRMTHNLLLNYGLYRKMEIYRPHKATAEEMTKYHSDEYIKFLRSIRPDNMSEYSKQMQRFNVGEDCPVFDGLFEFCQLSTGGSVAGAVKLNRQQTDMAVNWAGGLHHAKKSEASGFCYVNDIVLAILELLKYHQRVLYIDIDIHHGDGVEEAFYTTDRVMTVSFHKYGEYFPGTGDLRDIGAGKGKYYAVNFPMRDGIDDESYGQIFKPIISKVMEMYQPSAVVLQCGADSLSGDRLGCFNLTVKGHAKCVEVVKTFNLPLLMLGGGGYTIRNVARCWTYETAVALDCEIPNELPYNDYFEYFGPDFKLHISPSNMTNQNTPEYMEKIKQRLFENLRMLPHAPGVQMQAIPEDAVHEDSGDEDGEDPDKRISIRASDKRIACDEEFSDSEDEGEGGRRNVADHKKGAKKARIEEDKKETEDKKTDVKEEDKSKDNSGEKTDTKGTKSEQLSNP
T1 sequence (Q13547 whole entry): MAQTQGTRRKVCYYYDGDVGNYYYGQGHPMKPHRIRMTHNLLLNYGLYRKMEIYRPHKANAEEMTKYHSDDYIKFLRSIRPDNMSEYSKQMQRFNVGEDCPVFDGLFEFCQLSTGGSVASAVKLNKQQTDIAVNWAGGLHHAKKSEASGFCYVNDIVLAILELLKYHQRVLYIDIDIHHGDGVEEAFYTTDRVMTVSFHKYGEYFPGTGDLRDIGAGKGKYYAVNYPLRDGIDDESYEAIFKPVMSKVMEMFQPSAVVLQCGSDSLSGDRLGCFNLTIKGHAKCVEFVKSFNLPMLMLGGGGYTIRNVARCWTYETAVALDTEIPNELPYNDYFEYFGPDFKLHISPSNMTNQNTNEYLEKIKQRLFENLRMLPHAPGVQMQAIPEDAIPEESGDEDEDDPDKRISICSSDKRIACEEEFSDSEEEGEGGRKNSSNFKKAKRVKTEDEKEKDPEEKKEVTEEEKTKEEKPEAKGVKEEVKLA

For `O=C(NO)c1ccc(COc2ccc3c(c2)CCC(Cc2cc(C(F)(F)F)cc(C(F)(F)F)c2)C3=O)cc1` (stereo not drawn) [Compound 68, 4-(((6-(3,5-bis(trifluoromethyl)benzyl)-5-oxo-5,6,7,8-tetrahydronaphthalen-2-yl)oxy)methyl)-N-hydroxybenzamide], which inhibition at 2 µM (HDAC1) is on record?
Its inhibition at 2 µM is less than 50%.

What about the inhibition at 10 µM (HDAC1) of the same compound?
Its inhibition at 10 µM is less than 50%.

What about the inhibition at 50 µM (HDAC1) of the same compound?
The inhibition at 50 µM was less than 50%.

And the inhibition at 2 µM (HDAC3)?
Its inhibition at 2 µM is less than 50%.

And the inhibition at 10 µM (HDAC3)?
Its inhibition at 10 µM is less than 50%.

What about the inhibition at 50 µM (HDAC3) of the same compound?
Its inhibition at 50 µM is less than 50%.

And the inhibition at 2 µM (HDAC2)?
The inhibition at 2 µM was less than 50%.

What about the inhibition at 10 µM (HDAC2) of the same compound?
Its inhibition at 10 µM is less than 50%.

What about the inhibition at 50 µM (HDAC2) of the same compound?
Its inhibition at 50 µM is less than 50%.

And the inhibition at 4 µM (ATX (autotaxin))?
Its inhibition at 4 µM is less than 50%.

And the inhibition at 20 µM (ATX (autotaxin))?
The inhibition at 20 µM was less than 50%.

What about the inhibition at 50 µM (ATX (autotaxin)) of the same compound?
The inhibition at 50 µM was less than 50%.

With `O=C(/C=C/c1ccc2c(c1)CCCC2OCc1cc(C(F)(F)F)cc(C(F)(F)F)c1)NO` (stereo not drawn) [Compound 36, (E)-3-(5-((3,5-bis(trifluoromethyl)benzyl)oxy)-5,6,7,8-tetrahydronaphthalen-2-yl)-N-hydroxy acrylamide] as the compound, how does the inhibition at 2 µM (HDAC1) read?
Its inhibition at 2 µM is less than 50%.

What about the inhibition at 10 µM (HDAC1) of the same compound?
The inhibition at 10 µM was greater than 80%.

What about the inhibition at 50 µM (HDAC1) of the same compound?
Its inhibition at 50 µM is greater than 80%.

And the inhibition at 2 µM (HDAC3)?
The inhibition at 2 µM was less than 50%.

And the inhibition at 10 µM (HDAC3)?
Its inhibition at 10 µM is 50 to 80%.

What about the inhibition at 50 µM (HDAC3) of the same compound?
Its inhibition at 50 µM is greater than 80%.

What about the inhibition at 2 µM (HDAC2) of the same compound?
Its inhibition at 2 µM is 50 to 80%.

And the inhibition at 10 µM (HDAC2)?
Its inhibition at 10 µM is greater than 80%.

And the inhibition at 50 µM (HDAC2)?
The inhibition at 50 µM was greater than 80%.

And the inhibition at 4 µM (ATX (autotaxin))?
The inhibition at 4 µM was less than 50%.

What about the inhibition at 20 µM (ATX (autotaxin)) of the same compound?
Its inhibition at 20 µM is less than 50%.

And the inhibition at 50 µM (ATX (autotaxin))?
Its inhibition at 50 µM is less than 50%.

Which inhibition at 2 µM (HDAC1) does the source give for `Nc1cc(F)ccc1NC(=O)CCCCC(=O)N1CCN(C(=O)c2ccc3c(c2)CC/C(=C\c2cc(C(F)(F)F)cc(C(F)(F)F)c2)C3=O)CC1` [Compound 82, (E)-N-(2-amino-4-fluorophenyl)-6-(4-(6-(3,5-bis(trifluoromethyl)benzylidene)-5-oxo-5,6,7,8-tetrahydronaphthalene-2-carbonyl)piperazin-1-yl)-6-oxohexanamide] here?
The inhibition at 2 µM was less than 50%.

What about the inhibition at 10 µM (HDAC1) of the same compound?
Its inhibition at 10 µM is less than 50%.

And the inhibition at 50 µM (HDAC1)?
The inhibition at 50 µM was less than 50%.

And the inhibition at 2 µM (HDAC3)?
Its inhibition at 2 µM is less than 50%.

And the inhibition at 10 µM (HDAC3)?
Its inhibition at 10 µM is less than 50%.

What about the inhibition at 50 µM (HDAC3) of the same compound?
The inhibition at 50 µM was 50 to 80%.

What about the inhibition at 2 µM (HDAC2) of the same compound?
The inhibition at 2 µM was less than 50%.

And the inhibition at 10 µM (HDAC2)?
The inhibition at 10 µM was less than 50%.

And the inhibition at 50 µM (HDAC2)?
The inhibition at 50 µM was less than 50%.

What about the inhibition at 4 µM (ATX (autotaxin)) of the same compound?
Its inhibition at 4 µM is greater than 80%.

And the inhibition at 20 µM (ATX (autotaxin))?
The inhibition at 20 µM was greater than 80%.

What about the inhibition at 50 µM (ATX (autotaxin)) of the same compound?
Its inhibition at 50 µM is greater than 80%.

With `Nc1cc(F)ccc1NC(=O)/C=C/c1ccc(COc2ccc3c(c2)CC/C(=C\c2cc(C(F)(F)F)cc(C(F)(F)F)c2)C3=O)cc1` [Compound 71] as the compound, how does the inhibition at 2 µM (HDAC1) read?
The inhibition at 2 µM was less than 50%.

What about the inhibition at 10 µM (HDAC1) of the same compound?
Its inhibition at 10 µM is less than 50%.

And the inhibition at 50 µM (HDAC1)?
Its inhibition at 50 µM is less than 50%.

What about the inhibition at 2 µM (HDAC3) of the same compound?
Its inhibition at 2 µM is less than 50%.

What about the inhibition at 10 µM (HDAC3) of the same compound?
The inhibition at 10 µM was less than 50%.

And the inhibition at 50 µM (HDAC3)?
The inhibition at 50 µM was less than 50%.

And the inhibition at 2 µM (HDAC2)?
Its inhibition at 2 µM is less than 50%.

And the inhibition at 10 µM (HDAC2)?
Its inhibition at 10 µM is less than 50%.

And the inhibition at 50 µM (HDAC2)?
The inhibition at 50 µM was less than 50%.

What about the inhibition at 4 µM (ATX (autotaxin)) of the same compound?
Its inhibition at 4 µM is less than 50%.

What about the inhibition at 20 µM (ATX (autotaxin)) of the same compound?
The inhibition at 20 µM was less than 50%.

What about the inhibition at 50 µM (ATX (autotaxin)) of the same compound?
The inhibition at 50 µM was less than 50%.

With `CN(C(=O)OCc1cc(C(F)(F)F)cc(C(F)(F)F)c1)C1CCc2cc(/C=C/C(=O)NO)ccc21` (stereo not drawn) [Compound 64, 3,5-bis(trifluoromethyl)benzyl (E)-(5-(3-(hydroxyamino)-3-oxoprop-1-en-1-yl)-2,3-dihydro-1H-inden-1-yl)(methyl)carbamate] as the compound, how does the inhibition at 2 µM (HDAC1) read?
Its inhibition at 2 µM is 50 to 80%.

And the inhibition at 10 µM (HDAC1)?
The inhibition at 10 µM was greater than 80%.

What about the inhibition at 50 µM (HDAC1) of the same compound?
Its inhibition at 50 µM is greater than 80%.

What about the inhibition at 2 µM (HDAC3) of the same compound?
The inhibition at 2 µM was less than 50%.

What about the inhibition at 10 µM (HDAC3) of the same compound?
The inhibition at 10 µM was 50 to 80%.

What about the inhibition at 50 µM (HDAC3) of the same compound?
The inhibition at 50 µM was greater than 80%.

And the inhibition at 2 µM (HDAC2)?
Its inhibition at 2 µM is 50 to 80%.

And the inhibition at 10 µM (HDAC2)?
The inhibition at 10 µM was greater than 80%.

And the inhibition at 50 µM (HDAC2)?
Its inhibition at 50 µM is greater than 80%.

What about the inhibition at 4 µM (ATX (autotaxin)) of the same compound?
Its inhibition at 4 µM is 50 to 80%.

And the inhibition at 20 µM (ATX (autotaxin))?
Its inhibition at 20 µM is 50 to 80%.

What about the inhibition at 50 µM (ATX (autotaxin)) of the same compound?
The inhibition at 50 µM was 50 to 80%.

Which results are given for `O=C(/C=C/c1ccc2c(c1)CCC2NS(=O)(=O)c1cc(C(F)(F)F)cc(C(F)(F)F)c1)NO` (stereo not drawn) [Compound 18]?
inhibition at 2 µM (HDAC1): < 50%; inhibition at 10 µM (HDAC1): 50 to 80%; inhibition at 50 µM (HDAC1): > 80%; inhibition at 2 µM (HDAC3): < 50%; inhibition at 10 µM (HDAC3): 50 to 80%; inhibition at 50 µM (HDAC3): > 80%; inhibition at 2 µM (HDAC2): 50 to 80%; inhibition at 10 µM (HDAC2): 50 to 80%; inhibition at 50 µM (HDAC2): > 80%; inhibition at 4 µM (ATX (autotaxin)): < 50%; inhibition at 20 µM (ATX (autotaxin)): < 50%; inhibition at 50 µM (ATX (autotaxin)): < 50%
